Data on one compound can be found in patent publication US20260174714A1, “NONHUMAN ANIMAL AND USE THEREOF” (THE JIKEI UNIVERSITY, priority 2022, published 2026).

Series [1] concerns regenerated nephrons. The following applies: mouse, in vivo, ip. From the text:
(§1) This method has a low accuracy in the cell injection site and a low survival rate of the host fetus, and thus, a simpler method is required to establish the method as an evaluation model. Therefore, the collected cells derived from the EGFP mouse embryonic E14 kidney were directly injected into a subcapsular region of the kidney of a neonatal mouse aged 0 to 1 day after birth (see FIG. 3) by utilizing a fact that nephron precursor cells remain until about 3 days after birth and the renal development continues in mice (see Hartman H A, Lai H L. Cessation of renal morphogenesis in mice. 2007; 310(2): 379-87).
(§2) Cisplatin was intraperitoneally administered to a mouse individual having a chimeric kidney 2 weeks after transplantation, which was created in Experimental Example 1, and the regenerated nephrons were recovered 48 hours later and evaluated by immunofluorescence staining.
In addition, single-cell RNA sequencing was performed on the recovered sample.

Series [2] deals with foreign proximal renal tubular cells. The following applies: in vivo, ip. From the text:
In Experimental Example 1, instead of the collected cells derived from the EGFP mouse embryonic E14 kidney, GFP-expressing human nephron precursor cells were directly injected into a subcapsular region of the kidney of a neonatal mouse aged 0 to 1 day after birth. The foreign nephrons in the cell injection region 2 weeks after the transplantation were examined by immunostaining (see (A) of FIG. 9). As shown in (A) of FIG. 9, the formation of glomeruli and renal tubules derived from GFP-expressing human nephron precursor cells was confirmed. In addition, cisplatin was intraperitoneally administered to a mouse individual having a chimeric kidney 2 weeks after the transplantation of the GFP-expressing human nephron precursor cells, and the regenerated nephrons were recovered 48 hours later and evaluated by immunofluorescence staining.

For series [3] the test system is unchanged. As to conditions: mouse, in vivo, ip.
Text: as §1, §2

Each structure is given as a SMILES string.

Regarding `N.N.[Cl][Pt][Cl]` [cisplatin], the “expression of disorder-related genes other than Kim-1” value in series [1] was “enhanced expression of disorder-related genes other than Kim-1 was also confirmed”. Besides, in series [2], the “expression of human Kim-1 in the foreign proximal renal tubular cells” value is recorded as “expression of human Kim-1 was confirmed”. The “expression of Kim-1 in the foreign proximal renal tubular cells” value in series [3] was “dose-dependent expression of Kim-1 was confirmed”.
